Measured values as given in US9113629B2, “4-amino-6-(4-substituted-phenyl)-picolinates and 6-amino-2-(4-substituted-phenyl)-pyrimidine-4-carboxylates and their use as herbicides” (DOW AGROSCIENCES LLC, priority 2013, dated 2015).
Read-outs that look alike come from different tables or passages of the source.

Columns and labels:
[1] = system: Key Broadleaf Weed and Crop Species; assay: Post-emergent Test II herbicidal activity (Table 5); format: in vivo; settings: post-emergence, 336 h, 14 days after application; for pest or weed control at 70 g/ha: application rate 70 g ai/ha; for pest or weed control at 140 g/ha: application rate 140 g ai/ha
Procedure, shortened: (§1)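 Foliar application at 187 L/ha to greenhouse-grown seedlings (first or second true leaf); subirrigation thereafter. Visual 0–100% injury at 14 d relative to untreated plants.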

[2] = system: Key Grass and Sedge Weeds as well as Grass Crops; assay: Post-emergent Test II herbicidal activity (Table 6); format: in vivo; settings: post-emergence, 336 h; for pest or weed control at 70 g/ha: 70 g ai/ha; for pest or weed control at 140 g/ha: 140 g ai/ha
Procedure, shortened: as §1

[3] = ABUTH: velvetleaf (Abutilon theophrasti), read-out: Visual Growth Reduction (%) 14 Days After Application, ABUTH
[4] = AMARE: redroot pigweed (Amaranthus retroflexus), read-out: Visual Growth Reduction (%) 14 Days After Application, AMARE
[5] = BRSNN: oilseed-rape, canola (Brassica napus), read-out: Visual Growth Reduction (%) 14 Days After Application, BRSNN
[6] = CHEAL: lambsquarters (Chenopodium album), read-out: Visual Growth Reduction (%) 14 Days After Application, CHEAL
[7] = EPHHL: wild poinsettia (Euphorbia heterophylla), read-out: Visual Growth Reduction (%) 14 Days After Application, EPHHL
[8] = HELAN: sunflower (Helianthus annuus), read-out: Visual Growth Reduction (%) 14 Days After Application, HELAN
[9] = VIOTR: wild pansy (Viola tricolor), read-out: Visual Growth Reduction (%) 14 Days After Application, VIOTR
[10] = CYPES: yellow nutsedge (Cyperus esculentus), read-out: Visual Growth Reduction (%) 14 Days After Application, CYPES
[11] = DIGSA: crabgrass (Digitaria sanguinalis), read-out: Visual Growth Reduction (%) 14 Days After Application, DIGSA
[12] = ECHCG: barnyardgrass (Echinochloa crus-galli), read-out: Visual Growth Reduction (%) 14 Days After Application, ECHCG
[13] = ORYSA: rice (Oryza sativa), crop, read-out: Visual Growth Reduction (%) 14 Days After Application, ORYSA
[14] = SETFA: giant foxtail (Setaria faberi), read-out: Visual Growth Reduction (%) 14 Days After Application, SETFA
[15] = SORVU: grain sorghum (Sorghum vulgare), read-out: Visual Growth Reduction (%) 14 Days After Application, SORVU
[16] = TRZSS (wheat, Triticum aestivum), crop, read-out: Visual Growth Reduction (%) 14 Days After Application, TRZSS
[17] = ZEAMX: maize, corn (Zea mays), crop, read-out: Visual Growth Reduction (%) 14 Days After Application, ZEAMX

melting point [°C] | SMILES | pest or weed control at 70 g/ha [1, 3] [%] | pest or weed control at 140 g/ha [1, 3] [%] | pest or weed control at 70 g/ha [1, 4] [%] | pest or weed control at 140 g/ha [1, 4] [%] | pest or weed control at 70 g/ha [1, 5] [%] | pest or weed control at 140 g/ha [1, 5] [%] | pest or weed control at 70 g/ha [1, 6] [%] | pest or weed control at 140 g/ha [1, 6] [%] | pest or weed control at 70 g/ha [1, 7] [%] | pest or weed control at 140 g/ha [1, 7] [%] | pest or weed control at 70 g/ha [1, 8] [%] | pest or weed control at 140 g/ha [1, 8] [%] | pest or weed control at 70 g/ha [1, 9] [%] | pest or weed control at 140 g/ha [1, 9] [%] | pest or weed control at 70 g/ha [2, 10] [%] | pest or weed control at 140 g/ha [2, 10] [%] | pest or weed control at 70 g/ha [2, 11] [%] | pest or weed control at 140 g/ha [2, 11] [%] | pest or weed control at 70 g/ha [2, 12] [%] | also measured
138 to 140 | COC(=O)c1nc(-c2ccc(I)c(F)c2)c(F)c(N)c1Cl [Compound 132] | 95 to 100 | 95 to 100 | 95 to 100 | 95 to 100 | 95 to 100 | 95 to 100 | 95 to 100 | 95 to 100 | 95 to 100 | 95 to 100 | 95 to 100 | 95 to 100 | 95 to 100 | 95 to 100 | 45 to 59 | 85 to 94 | 85 to 94 | 85 to 94 | 85 to 94 | pest or weed control at 140 g/ha [2, 12]: 75 to 84%; pest or weed control at 70 g/ha [2, 13]: 0 to 29%; pest or weed control at 140 g/ha [2, 13]: 0 to 29%; pest or weed control at 70 g/ha [2, 14]: 0 to 29%; pest or weed control at 140 g/ha [2, 14]: 60 to 74%; pest or weed control at 70 g/ha [2, 15]: 85 to 94%; pest or weed control at 140 g/ha [2, 15]: 95 to 100%; pest or weed control at 70 g/ha [2, 16]: 0 to 29%; pest or weed control at 140 g/ha [2, 16]: 30 to 44%; pest or weed control at 70 g/ha [2, 17]: 95 to 100%; pest or weed control at 140 g/ha [2, 17]: 95 to 100%
163 to 165 | COC(=O)c1ccc(-c2nc(C(=O)OC)c(Cl)c(N)c2F)cc1 [Compound 190, methyl 4-amino-3-chloro-5-fluoro-6-(4-(methoxycarbonyl)phenyl)picolinate] | 0 to 29 | 0 to 29 | 0 to 29 | 30 to 44 | 0 to 29 | 0 to 29 | 60 to 74 | 30 to 44 | 0 to 29 | 0 to 29 | 0 to 29 | 0 to 29 | 0 to 29 | 0 to 29 | 0 to 29 | 0 to 29 | 0 to 29 | 0 to 29 | 0 to 29 | pest or weed control at 140 g/ha [2, 12]: 0 to 29%; pest or weed control at 70 g/ha [2, 13]: 0 to 29%; pest or weed control at 140 g/ha [2, 13]: 0 to 29%; pest or weed control at 70 g/ha [2, 14]: 0 to 29%; pest or weed control at 140 g/ha [2, 14]: 0 to 29%; pest or weed control at 70 g/ha [2, 15]: 0 to 29%; pest or weed control at 140 g/ha [2, 15]: 0 to 29%; pest or weed control at 70 g/ha [2, 16]: 0 to 29%; pest or weed control at 140 g/ha [2, 16]: 0 to 29%; pest or weed control at 70 g/ha [2, 17]: 0 to 29%; pest or weed control at 140 g/ha [2, 17]: 0 to 29%
